In patent US8952204B2, “Sulfonium salt, method for producing the same, and photoacid generator” (DSP Gokyo Food & Chemical Co., Ltd., priority 2012, dated 2015):

How the values were obtained:
[1] = Solubility in PGMEA (amount of PGMEA necessary for dissolving 100 mg test compound); assay type: physicochemical; settings: 20±5° C., after 30 minutes, 16 mL or less evaluated as desirable
Method: To the sulfonium salt compound to be measured (test compound; 100 mg each) was added PGMEA, and a strong shaking for 30 seconds was repeated at 20±5° C. every 5 minutes. In this way, the amount of PGMEA necessary for dissolving the test compound after 30 minutes was measured. Here, “dissolving” means to reach the state where no insoluble matter can be observed by visual inspection, specifically, means that the resultant solution is clear, or a mixture in an arbitrary ratio becomes transparent.
In Table 1 below, the compounds that require PGMEA in an amount of 16 mL or less were evaluated as having desirable properties as a current target compound.

[2] = Measurement of ultraviolet-visible absorption spectrum (molecular extinction coefficient at 365 nm); assay type: physicochemical; settings: 1×10^−4 mol/L acetonitrile solution; 50 to 2000 evaluated as desirable
Method: (Measurement of Ultraviolet-Visible Absorption Spectrum)
A 1×10^−4 mol/L acetonitrile solution of each test compound was prepared, and the molecular extinction coefficient at 365 nm in the ultraviolet-visible absorption spectrum was measured using an ultraviolet-visible spectrophotometer (UV-2400PC, manufactured by SHIMADZU CORPORATION). […] Considering that light should be transmitted to a deep portion in a thick film, compounds with a molecular extinction coefficient at 365 nm (i-line) of 50 to 2000 were evaluated as a compound having desirable properties.

| SMILES | PGMEA (mL): amount of PGMEA necessary for dissolving test compound [1] | Molecular Extinction Coefficient (365 nm) [2] |
| --- | --- | --- |
| CC1(C)[C@@H]2CC[C@@]1(CS(=O)(=O)[O-])C(=O)C2.CCCCOc1ccc2ccc(OCCCC)c([S+](CCCC)CCCC)c2c1 [Example Compound 1, 1-(2,7-di-n-butoxynaphthyl)di-n-butyl sulfonium (1S,4R)-7,7-dimethyl-2-oxobicyclo[2.2.1]heptane-1-yl methanesulfonate] | 11 mL | 640 |
| CC1(C)[C@@H]2CC[C@@]1(CS(=O)(=O)[O-])C(=O)C2.c1ccc([S+](c2ccccc2)c2ccccc2)cc1 [Comparative Example Compound 1, triphenylsulfonium (1S,4R)-7,7-dimethyl-2-oxobicyclo[2.2.1]heptane-1-yl methanesulfonate] | >160 mL | 0 |
